Measured values from ChEMBL document CHEMBL5137070, “N-2-(Phenylamino) Benzamide Derivatives as Dual Inhibitors of COX-2 and Topo I Deter Gastrointestinal Cancers via Targeting Inflammation and Tumor Progression” (J Med Chem, 2022).
pIC50: −log10 of the molar value. Calls of active or inactive are those of the source.

Key:
[1] = test system: RKO; experiment: Effect on cell morphology in human RKO cells assessed as appearance of smaller cells at 10 uM incubated for 48 hrs by giemsa staining based microscopic analysis; type: functional
[2] = test system: HGC-27; experiment: Effect on cell morphology in human HGC-27 cells assessed as appearance of round cells at 10 uM incubated for 48 hrs by giemsa staining based microscopic analysis; type: functional
[3] = test system: HGC-27; experiment: Effect on cell morphology in human HGC-27 cells assessed as condensed morphology at 10 uM incubated for 48 hrs by giemsa staining based microscopic analysis; type: functional
[4] = test system: RKO; experiment: Induction of mitochondrial membrane loss in human RKO at 1.1 to 10 uM and measured after 36 hrs by TMRE dye based flow cytometry; type: functional, cell-based; conditions: dose 1.1-10 µM, DDE = dose-dependent effect
[5] = test system: RKO; experiment: Antiproliferative activity against human RKO cells assessed as reduction in cell proliferation incubated for 48 hrs by MTT assay; type: functional, cell-based
[6] = test system: RKO; experiment: Anti-migration activity against human RKO cells assessed as decrease in cell migration rate at 0.37 uM for 48 hrs by crystalline violet staining based assay; type: functional
[7] = test system: HGC-27; experiment: Induction of mitochondrial membrane loss in human HGC-27 at 1.1 to 10 uM and measured after 36 hrs by TMRE dye based flow cytometry; type: functional, cell-based; conditions: dose 1.1-10 µM, DDE = dose-dependent effect
[8] = test system: RKO; experiment: Anti-migration activity against human RKO cells assessed as inhibition of cell migration at 0.37 uM and measured after 24 hrs by wound healing assay; type: functional, cell-based
[9] = test system: RKO; experiment: Induction of apoptosis in human RKO cells at 1.1 to 10 uM for 24 hrs by Annexin V-FITC/PI staining based flow cytometry; type: functional, cell-based; conditions: dose 1.1-10 µM
[10] = test system: RAW264.7; experiment: Inhibition of LPS induced NO production in mouse RAW264.7 cells at 6.6 uM incubated for 1 hrs followed by LPS stimulation and measured after 24 hrs by Griess reagent based assay; type: functional, cell-based; conditions: time 25.0 hrs
[11] = test system: RKO; experiment: Effect on cell morphology in human RKO cells assessed as condensed morphology at 10 uM incubated for 48 hrs by giemsa staining based microscopic analysis; type: functional
[12] = test system: HGC-27; experiment: Antiproliferative activity against human HGC-27 cells assessed as clone formation at 0.37 to 3.3 uM incubated for 4 days by crystal violet staining based analysis; type: functional, cell-based; conditions: dose 0.37-3.3 µM, time 4.0 day
[13] = test system: HGC-27; experiment: Antiproliferative activity against human HGC-27 cells assessed as cell viability at <= 0.41 uM for 48 hrs by MTT assay; type: functional; conditions: up to 0.41 µM
[14] = test system: HGC-27; experiment: Effect on cell morphology in human HGC-27 cells assessed as appearance of smaller cells at 10 uM incubated for 48 hrs by giemsa staining based microscopic analysis; type: functional
[15] = test system: HGC-27; experiment: Effect on cell morphology in human HGC-27 cells assessed as lose of adherence at 10 uM incubated for 48 hrs by giemsa staining based microscopic analysis; type: functional
[16] = test system: RKO; experiment: Antiproliferative activity against human RKO cells assessed as cell viability at <= 0.41 uM for 48 hrs by MTT assay; type: functional; conditions: up to 0.41 µM
[17] = test system: CT26.WT; experiment: Antiproliferative activity against mouse CT26.WT cells assessed as cell viability at 1.11 uM for 48 hrs by MTT assay; type: functional; conditions: read-out: Activity
[18] = test system: RAW264.7; experiment: Antiinflammatory activity in mouse RAW264.7 cells assessed as reduction in LPS-induced COX-2 expression at 6.6 uM incubated for 1 hrs followed by LPS stimulation and measured after 24 hrs by western blot analysis; type: functional, cell-based; conditions: time 25.0 hrs
[19] = target: T1, DNA topoisomerase 1 (Homo sapiens, UniProt P11387); experiment: Inhibition of human topoisomerase I assessed as DNA relaxation using DNA pBR322 as substrate incubated for 30 mins by ethidium bromide staining based agarose gel electrophoresis
T1 sequence (P11387 whole entry): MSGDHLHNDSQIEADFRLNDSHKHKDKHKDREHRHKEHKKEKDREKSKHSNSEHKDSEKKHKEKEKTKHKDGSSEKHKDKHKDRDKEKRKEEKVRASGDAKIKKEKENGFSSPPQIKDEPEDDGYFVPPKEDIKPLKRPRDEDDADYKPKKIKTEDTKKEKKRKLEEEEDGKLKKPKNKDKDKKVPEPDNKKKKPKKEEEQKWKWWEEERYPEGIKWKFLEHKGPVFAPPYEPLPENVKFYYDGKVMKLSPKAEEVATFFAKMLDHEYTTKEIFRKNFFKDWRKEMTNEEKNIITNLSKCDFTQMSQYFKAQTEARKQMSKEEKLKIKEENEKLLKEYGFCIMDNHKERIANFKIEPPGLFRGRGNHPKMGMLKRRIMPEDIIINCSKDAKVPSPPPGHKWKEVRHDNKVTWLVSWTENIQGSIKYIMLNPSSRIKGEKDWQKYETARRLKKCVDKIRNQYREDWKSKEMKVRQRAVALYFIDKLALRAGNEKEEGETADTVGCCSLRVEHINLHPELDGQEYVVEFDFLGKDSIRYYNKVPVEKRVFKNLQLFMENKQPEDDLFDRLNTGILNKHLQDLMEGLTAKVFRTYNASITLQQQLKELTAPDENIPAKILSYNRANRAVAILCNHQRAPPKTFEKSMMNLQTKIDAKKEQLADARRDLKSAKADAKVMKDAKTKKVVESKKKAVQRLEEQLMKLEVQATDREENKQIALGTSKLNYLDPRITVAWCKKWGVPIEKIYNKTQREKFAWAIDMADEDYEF

[20] = test system: HGC-27; experiment: Anti-migration activity against human HGC-27 cells assessed as decrease in cell migration rate at 0.37 uM for 48 hrs by crystalline violet staining based assay; type: functional
[21] = target: T2, DNA topoisomerase 1 (Homo sapiens) (UniProt P11387); experiment: Inhibition of human topoisomerase I assessed as DNA unwinding using DNA pBR322 as substrate at 2 uM incubated for 30 mins by ethidium bromide staining based agarose gel electrophoresis
T2 sequence (whole entry): T1 sequence (P11387 whole entry)

[22] = test system: CT26.WT; experiment: Antiproliferative activity against mouse CT26.WT cells assessed as reduction in cell proliferation incubated for 48 hrs by MTT assay; type: functional, cell-based
[23] = test system: RKO; experiment: Effect on cell morphology in human RKO cells assessed as contracted nucleus at 10 uM incubated for 48 hrs by giemsa staining based microscopic analysis; type: functional
[24] = test system: HGC-27; experiment: Induction of apoptosis in human HGC-27 cells at 1.1 to 10 uM for 24 hrs by Annexin V-FITC/PI staining based flow cytometry; type: functional, cell-based; conditions: dose 1.1-10 µM
[25] = test system: RKO; experiment: Antiproliferative activity against human RKO cells assessed as clone formation at 0.04 to 3.3 uM incubated for 4 days by crystal violet staining based analysis; type: functional, cell-based; conditions: dose 0.04-3.3 µM, time 4.0 day
[26] = test system: RAW264.7; experiment: Antiinflammatory activity against LPS-stimulated mouse RAW264.7 cells assessed decrease in IL-1beta release at 6.6 uM incubated for 1 hrs followed by LPS stimulation and measured after 24 hrs by ELISA relative to control; type: functional, cell-based; conditions: time 25.0 hrs
[27] = test system: HGC-27; experiment: Induction of cell cycle arrest in human HGC-27 cells assessed as accumulation at G2/M phase at 3.3 to 10 uM for 24 hrs by propidium iodide staining based flow cytometry; type: functional; conditions: dose 3.3-10 µM
[28] = test system: RKO; experiment: Effect on cell morphology in human RKO cells assessed as lose of adherence at 10 uM incubated for 48 hrs by giemsa staining based microscopic analysis; type: functional
[29] = test system: RKO; experiment: Induction of cell cycle arrest in human RKO cells assessed as accumulation at G2/M phase at 3.3 to 10 uM for 24 hrs by propidium iodide staining based flow cytometry; type: functional; conditions: dose 3.3-10 µM
[30] = test system: HT-29; experiment: Antiproliferative activity against human HT-29 cells assessed as reduction in cell proliferation incubated for 48 hrs by MTT assay; type: functional, cell-based; conditions: HT-29, 48 h
[31] = test system: HGC-27; experiment: Antiproliferative activity against human HGC-27 cells assessed as reduction in cell proliferation incubated for 48 hrs by MTT assay; type: functional, cell-based; conditions: HGC-27, 48 h
[32] = test system: SGC-7901; experiment: Antiproliferative activity against human SGC-7901 cells assessed as reduction in cell proliferation incubated for 48 hrs by MTT assay; type: functional, cell-based; conditions: SGC-7901, 48 h
[33] = test system: RKO; experiment: Effect on cell morphology in human RKO cells assessed as appearance of round cells at 10 uM incubated for 48 hrs by giemsa staining based microscopic analysis; type: functional
[34] = test system: RAW264.7; experiment: Cytotoxicity against mouse RAW264.7 cells assessed as reduction in cell viability at <=11.11 for 24 hrs by MTT assay; type: toxicity, cell-based; conditions: raw264.7, 24 h
[35] = test system: HGC-27; experiment: Effect on cell morphology in human HGC-27 cells assessed as contracted nucleus at 10 uM incubated for 48 hrs by giemsa staining based microscopic analysis; type: functional

Cc1c(Cl)cccc1Nc1ccc(F)cc1C(=O)NCc1ccc(O)c(F)c1
4.80: pIC50 [30]
4.84: pIC50 [32]
active: Activity [1] | Activity [2] | Activity [3] | Activity [4] Dde | Activity [6] | Activity [7] Dde | Activity [8] | Activity [9] | inhibition [10] | Activity [11] | Activity [12] | Activity [14] | Activity [15] | Activity [18] | Activity [20] | Activity [23] | Activity [24] | Activity [25] | Activity [26] | Activity [27] | Activity [28] | Activity [29] | Activity [33] | Activity [35]
5.14: pIC50 [31]
> 80%: viability at 1.11 µM [17] | Activity [34]
41.1%: inhibition [21]
5.05: pIC50 [22]
5.17: pIC50 [5]
5.32: pIC50 [19]
>80%: Activity [13] | Activity [16]
